Data: patent publication US12195424B2, “Antibiotic compounds” (The General Hospital Corporation, priority 2017, dated 2025)

Experiments:
[1] = Cytotoxicity (WST-1) in a panel of human cell lines; format: cell-based; conditions: panel of human cell lines, serum-free media, 24 h; read-out: LC50
Protocol: (§1) Cytotoxicity. Cryopreserved rat and human primary hepatocytes were purchased from the Cell Resource Core at Massachusetts General Hospital (Boston, MA, USA). The hepatocytes were cultured in a collagen sandwiched configuration in 24-well plates, as described previously. Briefly, 4×10^5 live cells were seeded in 24-well plates coated with rat tail collagen type I. Plates were incubated in a humidified 5% CO2 incubator at 37° C. for 4 h to allow cells to attach to the collagen gel. […] The cell cultures were incubated in a humidified 5% CO2 incubator at 37° C.
(§2) For cytotoxicity tests, HepG2, RPTEC, and NHEK were cultured at 70-80% confluence in tissue culture treated 96-well plates in a volume of 100 μl/well corresponding culture media. To test cytotoxicity in the absence of serum, all cells were washed twice with PBS and then once with the serum-free corresponding culture media. […] WST-1 reduction was measured at 450 nm. The percent fluorescence relative to that of the no-treatment control was calculated. The assay was done in triplicate.

[2] = test system: panel of human cell lines; test: as above; format: cell-based; conditions: compared with CD437, in words
Protocol: as §1, §2

OCc1ccc2cc(-c3ccc(O)c(C45CC6CC(CC(C6)C4)C5)c3)ccc2c1 [Analog 2, 2-(adamantan-1-yl)-4-(6-(hydroxymethyl)naphthalen-2-yl)phenol]
CC50 at 24 h [1]: ≥ 31 µg/mL
cytotoxicity [2]: significantly reduced
